We go through 2 molecules from patent US20010016643A1, “Peptide derivatives” (priority 1995, published 2001).

The nature of series [1]: Lipophilicity relative to human insulin (k′rel) by RP-HPLC. The series is classed as physicochemical. To be noted: LiChrosorb RP18 HPLC, isocratic elution, sodium phosphate buffer pH 7.3/acetonitrile. How it is done: The lipophilicity of peptides and peptide derivatives relative to human insulin, k′rel, was measured on a LiChrosorb RP18 (5 μm, 4×250 mm) HPLC column by isocratic elution at […] using mixtures of A) 0.1 M sodium phosphate buffer, pH 7.3, containing 10% acetonitrile, and B) 50% acetonitrile in water as eluents. The elution was monitored by following the UV absorption of the eluate at 214 nm. Void time, t0, was found by injecting 0.1 mM sodium nitrate. Retention time for human insulin, tinsulin was adjusted to at least 2t0 by varying the ratio between the A and B solutions. k′rel=(tderivative−t0 /(tinsulin−t0).

The nature of series [2]: Blood glucose in rabbits pretreated with Insulin Actrapid after SC injection of glucagon or derivative. Format: in vivo.
Procedure: The resulting solution was sterilized by filtration and transferred to a vial.
Blood was sampled at times: −60, 0, 15, 30, 60, 120, 180 and 240 min, and the glucose concentration determined by the hexokinase method.

Residues, ends and D or L forms follow the SMILES beside them.

As for `CCCC[C@H](NC=O)C(=O)N[C@@H](CC(C)C)C(=O)N[C@@H](Cc1ccccc1)C(=O)N[C@@H](CCCC)C(=O)N[C@@H](Cc1ccc(O)cc1)C(=O)N[C@@H](CCCCN)C(=O)O` [For-Nle-Leu-Phe-Nle-Tyr-Lys-OH] (HELM PEPTIDE1{[O=C[*:2]].[Nle].L.F.[Nle].Y.K}$$$$V2.0), the “lipophilicity relative to human insulin, k′rel” value in series [1] is 2.3.
Regarding “Lys^30 (N^ε-decanoyl) glucagon [Example 6]”, the blood glucose concentration in series [2] (15 min after SC injection) stood at 79 mg glucose/100 ml; in series [2] (30 min after SC injection) it was 93 mg glucose/100 ml; in series [2] (60 min after SC injection), 114 mg glucose/100 ml; in series [2] (120 min after SC injection), 112 mg glucose/100 ml; in series [2] (180 min after SC injection) it was 116 mg glucose/100 ml; in series [2] (240 min after SC injection) it was 110 mg glucose/100 ml. The blood glucose concentration in series [2] (time 0 min (SC injection of test substance)) amounted to 51 mg glucose/100 ml; in series [2] (time −60 min (at Insulin Actrapid 2 IU/animal, before test substance)), 94 mg glucose/100 ml. Moreover, in series [2] (SC, compared with glucagon), the “blood glucose raising effect” value is on record as “retained in Lys^30(Nε-decanoyl) glucagon but with a prolonged action”.
